From patent publication US8598154B2 (Corcept Therapeutics, Inc., priority 2010, dated 2013)

Columns and labels:
[1] = molecular target: T1, Human Recombinant Glucocorticoid Receptor (Homo sapiens, UniProt P04150); test: Glucocorticoid receptor binding displacement assay with 3H-dexamethasone; conditions: displacement of 2.5 nM 3H-dexamethasone; Ki from IC50 by Cheng-Prusoff; read-out: GR Binding Ki
T1 construct: This GR was a full-length steroid hormone receptor likely to be associated with heat-shock and other endogenous proteins; host or cells: baculovirus-infected insect cells
T1 sequence (P04150 1-777): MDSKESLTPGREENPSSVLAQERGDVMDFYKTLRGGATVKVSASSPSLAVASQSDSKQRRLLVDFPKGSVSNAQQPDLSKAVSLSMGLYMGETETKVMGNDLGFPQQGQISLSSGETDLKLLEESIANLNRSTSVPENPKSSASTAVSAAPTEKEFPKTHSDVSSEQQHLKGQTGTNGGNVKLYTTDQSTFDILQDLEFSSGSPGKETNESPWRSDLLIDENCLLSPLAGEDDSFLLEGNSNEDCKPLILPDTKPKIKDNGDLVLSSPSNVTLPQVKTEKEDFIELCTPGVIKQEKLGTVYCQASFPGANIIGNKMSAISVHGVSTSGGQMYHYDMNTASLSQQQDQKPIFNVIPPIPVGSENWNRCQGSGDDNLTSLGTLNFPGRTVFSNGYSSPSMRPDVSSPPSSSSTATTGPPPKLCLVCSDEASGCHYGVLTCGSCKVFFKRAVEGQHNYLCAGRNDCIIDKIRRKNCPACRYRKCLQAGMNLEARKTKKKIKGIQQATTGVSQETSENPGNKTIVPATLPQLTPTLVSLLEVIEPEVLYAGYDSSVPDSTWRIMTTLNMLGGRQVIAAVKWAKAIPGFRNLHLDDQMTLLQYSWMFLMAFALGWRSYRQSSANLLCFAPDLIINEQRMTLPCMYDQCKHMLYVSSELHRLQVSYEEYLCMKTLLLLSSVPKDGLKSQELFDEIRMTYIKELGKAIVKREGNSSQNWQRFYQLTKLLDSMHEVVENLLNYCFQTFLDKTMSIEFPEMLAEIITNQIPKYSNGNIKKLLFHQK
Method: The source of the receptor was recombinant baculovirus-infected insect cells. This GR was a full-length steroid hormone receptor likely to be associated with heat-shock and other endogenous proteins.
For the Primary Screen, test compounds were tested at 1 μM in duplicate. These compounds were diluted from 10 mM stock in 100% DMSO. After dilution to 100 μM, 5 μl were added to 245 μl assay buffer to obtained 2 μM compound and 2% DMSO.
For the IC50 determinations, test compounds were tested at 6 concentrations in duplicate (concentration range depends on % inhibition binding that was obtained in the Primary Screen). Test compounds were diluted from 10 mM stock in 100% DMSO. The tested solutions were prepared at 2× final assay concentration in 2% DMSO/assay buffer.
All reagents and the assay plate were kept on ice during the addition of reagents. […] After the additions, the incubation mixture was mixed and incubated for 2.5 hrs at 4° C.
After 2.5 hrs incubation, unbound counts were removed with dextran coated charcoal (DCC) as follows: 25 μl of DCC solution (10% DCC in assay buffer) was added to all wells and mixed (total volume 225 μl). The plate was centrifuged at 4000 rpm for 10 minutes at 4° C. 75 μl of the supernatants (i.e.⅓ of total volume) was carefully pipetted into an optiplate. 200 μl of scintillation cocktail were added (Microscint-40, Packard Bioscience. B.V.). The plate was vigorously shaken for approx. 10 minutes and counted on Topcount.
The IC50 values were converted to Ki (the inhibition constant) using the Cheng-Prusoff equation. Test results are presented in Tablel.
Reagents: Assay buffer: 10 mM potassium phosphate buffer pH 7.6 containing 5 mM DTT, 10 mM sodium molybdate, 100 μM EDTA and 0.1% BSA.

[2] = molecular target: T2, glucocorticoid receptors (GR) in SW1353/MMTV-5 cells (Homo sapiens, UniProt P04150); test: GR functional assay using SW1353/MMTV-5 cells (MMTV-luciferase reporter); type: cell-based
T2 construct: contains endogenous glucocorticoid receptors; endogenous in cells; host or cells: SW1353/MMTV-5 (human chondrosarcoma, stably transfected with the pMAMneo-Luc reporter only)
T2 sequence (P04150 1-777): T1 sequence (P04150 1-777)
Method: SW1353/MMTV-5 is an adherent human chondrosarcoma cell line that contains endogenous glucocorticoid receptors. It was transfected with a plasmid (pMAMneo-Luc) encoding firefly luciferase located behind a glucocorticoid-responsive element (GRE) derived from a viral promoter (long terminal repeat of mouse mammary tumor virus). A stable cell line SW1353/MMTV-5 was selected with geneticin, which was required to maintain this plasmid.
SW1353/MMTV-5 cells were distributed in 96-well plates and incubated in medium (without geneticin) for 24 hrs (in the absence of CO2).

Row | Structure (SMILES) | Ki [1] | Ki [2]
1 | O=S(=O)(c1ccc(N2CCC2)nc1)N1CCC2=Cc3c(cnn3-c3ccc(F)cc3)C[C@]2(COC(F)F)C1 [Example 17, (R)-6-(6-Azetidin-1-ylpyridine-3-sulfonyl)-4a-difluoromethoxymethyl-1-(4-fluorophenyl)-4,4a,5,6,7,8-hexahydro-1H-1,2,6-triazacyclopenta[b]naphthalene] | > 0.001 µM | 0.01 to 0.05 µM
2 | O=C(OCCO)[C@]12Cc3cnn(-c4ccc(F)cc4)c3C=C1CCN(S(=O)(=O)c1ccc(N3CCOCC3)nc1)C2 [Example 55, (R)-1-(4-Fluorophenyl)-6-(6-morpholin-4-yl-pyridine-3-sulfonyl]-1,4,5,6,7,8-hexahydro-1,2,6-triaza-cyclopenta[b]naphthalene-4a-carboxylic acid 2-hydroxethyl ester] | > 0.001 µM | > 0.05 µM
3 | COC(=O)[C@]12Cc3cnn(-c4ccc(F)cc4)c3C=C1CCN(S(=O)(=O)c1ccc(N3CCOCC3)nc1)C2 [Example 1c, (R)-1-(4-Fluorophenyl)-6-(6-morpholin-4-ylpyridine-3-sulfonyl)-1,4,5,6,7,8-hexahydro-1,2,6-triazacyclopenta[b]naphthalene-4a-carboxylic acid methyl ester] | > 0.001 µM | > 0.05 µM
4 | O=S(=O)(c1ccc(N2CCOCC2)nc1)N1CCC2=Cc3c(cnn3-c3ccc(F)cc3)C[C@]2(CO)C1 [Example 1d, [(R)-1-(4-Fluorophenyl)-6-[[6-(4-morpholinyl)-3-pyridinyl]sulfonyl]-1,4,7,8-tetrahydro-1,2,6-triazacyclopenta[b]naphthalen-4a-yl]methanol] | > 0.001 µM | > 0.05 µM
5 | O=S(=O)(c1ccc(N2CC[C@@H](O)C2)nc1)N1CCC2=Cc3c(cnn3-c3ccc(F)cc3)C[C@]2(CN2CC[C@H](O)C2)C1 [Example 46, (S)-1-{(S)-1-(4-Fluorophenyl)-6-[6-((R)-3-hydroxy-pyrrolidin-3-ol)-pyridine-3-sulfonyl]-1,4,5,6,7,8-hexahydro-1,2,6-triaza-cyclopenta[b]naphthalene-4a-ylmethyl}-pyrrolidin-3-ol] | > 0.001 µM | –
6 | CCOC[C@]12Cc3cnn(-c4ccc(F)cc4)c3C=C1CCN(S(=O)(=O)c1ccc(NC)nc1)C2 [Example 7, (R)-4a-Ethoxymethyl-1-(4-fluorophenyl)-6-[[6-methylamino-3-pyridinyl]sulfonyl]-1,4,7,8-tetrahydro-1,2,6-triazacyclopenta[b]naphthalene] | < 0.0005 µM | 0.01 to 0.05 µM
7 | COC[C@]12Cc3cnn(-c4ccc(F)cc4)c3C=C1CCN(S(=O)(=O)c1ccc(C(F)(F)F)nc1)C2 [Example 24, (R)-1-(4-Fluorophenyl)-4a-methoxymethyl-6-(6-trifluoromethylpyridine-3-sulfonyl)-4,4a,5,6,7,8-hexahydro-1H-1,2,6-triaza-cyclopenta[b]naphthalene] | > 0.001 µM | 0.01 to 0.05 µM
8 | CNc1ccc(S(=O)(=O)N2CCC3=Cc4c(cnn4-c4ccc(F)cc4)C[C@]3(COC)C2)cn1 [Example 9, (R)-1-(4-Fluorophenyl)-4a-methoxymethyl-6-[[6-methylamino-3-pyridinyl]sulfonyl]-1,4,7,8-tetrahydro-1,2,6-triazacyclopenta[b]naphthalene] | > 0.001 µM | > 0.05 µM
9 | COC[C@]12Cc3cnn(-c4ccc(F)cc4)c3C=C1CCN(S(=O)(=O)c1ccc(N3CCNCC3)nc1)C2 [Example 18, (R)-1-(4-Fluorophenyl)-4a-methoxymethyl-6-[[6-(1-piperazinyl)-3-pyridinyl]sulfonyl]-1,4,7,8-tetrahydro-1,2,6-triazacyclopenta[b]naphthalene] | > 0.001 µM | > 0.05 µM
10 | COC[C@]12Cc3cnn(-c4ccc(F)cc4)c3C=C1CCN(S(=O)(=O)c1ccc(N3CCOCC3)nc1)C2 [Example 14, (R)-1-(4-Fluorophenyl)-4a-methoxymethyl-6-(6-morpholin-4-yl-pyridine-3-sulfonyl)-4,4a,5,6,7,8-hexahydro-1H-1,2,6-triazacyclopenta[b]naphthalene] | 0.0005 to 0.001 µM | 0.01 to 0.05 µM
11 | CC(C)OC(=O)[C@]12Cc3cnn(-c4ccc(F)cc4)c3C=C1CCN(S(=O)(=O)c1ccc(N3CCOCC3)nc1)C2 [Example 49, (R)-1-(4-Fluorophenyl)-6-(6-morpholin-4-yl-pyridine-3-sulfonyl]-1,4,5,6,7,8-hexahydro-1,2,6-triaza-cyclopenta[b]naphthalene-4a-carboxylic acid isopropyl ester] | < 0.0005 µM | 0.01 to 0.05 µM
12 | O=S(=O)(c1ccc(N2CCCC2)nc1)N1CCC2=Cc3c(cnn3-c3ccc(F)cc3)C[C@]2(COCC2CC2)C1 [Example 25, (R)-4a-Cyclopropylmethoxymethyl-1-(4-fluorophenyl)-6-(6-pyrrolidin-1-yl-pyridine-3-sulfonyl)-4,4a,5,6,7,8-hexahydro-1H-1,2,6-triaza-cyclopenta[b]naphthalene] | 0.0005 to 0.001 µM | < 0.01 µM
13 | CCOC[C@]12Cc3cnn(-c4ccc(F)cc4)c3C=C1CCN(S(=O)(=O)c1cnc3c(c1)OCCN3C)C2 [Example 3] | < 0.0005 µM | 0.01 to 0.05 µM
14 | O=C(OCC1CC1)[C@]12Cc3cnn(-c4ccc(F)cc4)c3C=C1CCN(S(=O)(=O)c1ccc(C(F)(F)F)nc1)C2 [Example 58] | 0.0005 to 0.001 µM | < 0.01 µM
15 | CC1(COC(=O)[C@]23Cc4cnn(-c5ccc(F)cc5)c4C=C2CCN(S(=O)(=O)c2ccc(N4CCOCC4)nc2)C3)COC1 [Example 54, (R)-1-(4-Fluorophenyl)-6-(6-morpholin-4-yl-pyridine-3-sulfonyl]-1,4,5,6,7,8-hexahydro-1,2,6-triaza-cyclopenta[b]naphthalene-4a-carboxylic acid 3-methyloxetan-3-ylmethyl ester] | > 0.001 µM | > 0.05 µM
16 | COCCOC[C@]12Cc3cnn(-c4ccc(F)cc4)c3C=C1CCN(S(=O)(=O)c1ccc(N3CC[C@@H](F)C3)nc1)C2 [Example 33, (R)-1-(4-Fluorophenyl)-6-[6-((R)-3-fluoropyrrolidin-1-yl)-pyridine-3-sulfonyl]-4a-(2-methoxyethoxymethyl)-4,4a,5,6,7,8-hexahydro-1H-1,2,6-triaza-cyclopenta[b]naphthalene] | 0.0005 to 0.001 µM | < 0.01 µM
17 | COC[C@]12Cc3cnn(-c4ccc(F)cc4)c3C=C1CCN(S(=O)(=O)c1ccc(N3CC[C@@H](F)C3)nc1)C2 [Example 20, (R)-1-(4-Fluorophenyl)-6-[6-((R)-3-fluoropyrrolidin-1-yl)-pyridine-3-sulfonyl]-4a-methoxymethyl-4,4a,5,6,7,8-hexahydro-1H-1,2,6-triaza-cyclopenta[b]naphthalene] | > 0.001 µM | 0.01 to 0.05 µM
18 | COC[C@]12Cc3cnn(-c4ccc(F)cc4)c3C=C1CCN(S(=O)(=O)c1cncc(N3CC[C@@H](O)C3)c1)C2 [Example 38, (R)-1-{5-[(R)-1-(4-Fluorophenyl)-4a-methoxymethyl-1,4,4a,5,6,7,8-hexahydro-1,2,6-triaza-cyclopenta[b]naphthalene-6-sulfonyl]pyridine-3-yl}-pyrrolidine-3-ol] | 0.0005 to 0.001 µM | 0.01 to 0.05 µM
